How the values were obtained:
Histone deacetylase 8 = Histone deacetylase 8 (Homo sapiens, UniProt Q9BY41); assay: Inhibition of HDAC8 (unknown origin)
Histone deacetylase 4 = Histone deacetylase 4 (Homo sapiens, UniProt P56524); assay: Inhibition of HDAC4 (unknown origin)
Histone deacetylase 1 = Histone deacetylase 1 (Homo sapiens, UniProt Q13547); assay: Inhibition of HDAC1 (unknown origin)
Chain of Histone deacetylase 1 (Q13547 whole entry): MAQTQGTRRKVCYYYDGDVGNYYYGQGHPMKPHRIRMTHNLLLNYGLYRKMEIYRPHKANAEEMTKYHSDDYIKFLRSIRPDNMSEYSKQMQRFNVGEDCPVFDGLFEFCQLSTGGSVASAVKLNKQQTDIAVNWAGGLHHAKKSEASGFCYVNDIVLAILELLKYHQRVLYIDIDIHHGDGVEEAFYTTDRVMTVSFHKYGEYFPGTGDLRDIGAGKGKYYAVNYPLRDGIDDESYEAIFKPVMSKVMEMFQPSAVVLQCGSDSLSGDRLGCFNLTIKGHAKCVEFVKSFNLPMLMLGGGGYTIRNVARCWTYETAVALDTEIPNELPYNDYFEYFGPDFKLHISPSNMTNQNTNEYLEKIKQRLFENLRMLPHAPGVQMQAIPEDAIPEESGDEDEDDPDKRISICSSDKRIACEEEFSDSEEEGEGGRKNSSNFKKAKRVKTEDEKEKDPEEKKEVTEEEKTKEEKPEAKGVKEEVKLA

Chain of Histone deacetylase 8 (Q9BY41 whole entry): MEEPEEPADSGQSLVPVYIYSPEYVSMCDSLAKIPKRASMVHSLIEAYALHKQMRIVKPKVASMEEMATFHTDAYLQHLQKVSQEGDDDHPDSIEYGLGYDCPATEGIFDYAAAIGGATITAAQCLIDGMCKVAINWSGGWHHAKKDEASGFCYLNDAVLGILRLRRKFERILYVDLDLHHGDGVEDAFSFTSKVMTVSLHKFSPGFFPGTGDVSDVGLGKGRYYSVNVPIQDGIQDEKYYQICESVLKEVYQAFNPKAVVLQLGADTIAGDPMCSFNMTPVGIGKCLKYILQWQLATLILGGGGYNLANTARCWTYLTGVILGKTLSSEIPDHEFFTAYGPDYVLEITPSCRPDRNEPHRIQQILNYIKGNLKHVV
Chain of Histone deacetylase 4 (P56524 whole entry): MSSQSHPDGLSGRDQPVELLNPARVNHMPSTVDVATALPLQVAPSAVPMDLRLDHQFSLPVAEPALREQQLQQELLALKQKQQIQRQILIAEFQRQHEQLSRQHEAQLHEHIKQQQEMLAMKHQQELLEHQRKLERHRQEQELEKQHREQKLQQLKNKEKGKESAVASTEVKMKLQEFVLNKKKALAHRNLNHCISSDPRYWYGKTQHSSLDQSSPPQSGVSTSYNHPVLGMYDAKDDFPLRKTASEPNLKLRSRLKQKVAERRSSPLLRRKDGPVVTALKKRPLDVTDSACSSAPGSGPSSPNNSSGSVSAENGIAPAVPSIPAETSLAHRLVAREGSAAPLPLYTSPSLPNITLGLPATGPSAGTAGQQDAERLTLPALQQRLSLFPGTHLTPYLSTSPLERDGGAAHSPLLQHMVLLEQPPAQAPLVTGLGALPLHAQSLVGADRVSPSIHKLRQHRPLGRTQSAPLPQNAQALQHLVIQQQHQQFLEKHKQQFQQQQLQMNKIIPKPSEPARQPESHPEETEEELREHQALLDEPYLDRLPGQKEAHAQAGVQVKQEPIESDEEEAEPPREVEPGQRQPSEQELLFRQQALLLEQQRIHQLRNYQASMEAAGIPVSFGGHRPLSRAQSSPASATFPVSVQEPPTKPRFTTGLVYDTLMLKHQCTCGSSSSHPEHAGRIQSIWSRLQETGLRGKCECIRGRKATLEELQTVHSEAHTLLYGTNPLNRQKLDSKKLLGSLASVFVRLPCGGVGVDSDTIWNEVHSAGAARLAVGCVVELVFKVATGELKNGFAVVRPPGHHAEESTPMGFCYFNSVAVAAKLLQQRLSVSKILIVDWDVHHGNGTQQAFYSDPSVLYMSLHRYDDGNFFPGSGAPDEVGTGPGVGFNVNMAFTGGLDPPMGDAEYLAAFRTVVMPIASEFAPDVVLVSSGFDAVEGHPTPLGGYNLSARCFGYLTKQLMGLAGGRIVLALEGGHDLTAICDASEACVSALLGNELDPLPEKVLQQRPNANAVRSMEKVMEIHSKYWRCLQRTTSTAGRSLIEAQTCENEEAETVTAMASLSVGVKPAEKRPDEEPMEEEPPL

IC50 (Histone deacetylase 8): > 1000 nM | IC50 (Histone deacetylase 4): > 1000 nM | IC50 (Histone deacetylase 1): 4.1 nM
SMILES: COc1ccc(-c2nc(C(=O)NCc3ccc(C(=O)NO)cc3)cc3c2[nH]c2ccccc23)cc1

— ChEMBL document CHEMBL5233266, “β-Carboline as a Privileged Scaffold for Multitarget Strategies in Alzheimer's Disease Therapy” (J Med Chem, 2021)
